Patent publication US20220380430A1, “Non-Transgenic Functional Rescue of Neuropeptides” (Worcester Polytechnic Institute, priority 2021, published 2022)
No end group written: not given here.

Tests used:
NPR-10B = molecular target: T1, NPR-10B (Caenorhabditis elegans, UniProt Q6EUU1); experiment: In vitro GPCR activation assay (CHO-K1 cells, aequorin, human Gα16), NPR-10B; assay type: cell-based, C. elegans; details: in words
T1 sequence (Q6EUU1 1-362): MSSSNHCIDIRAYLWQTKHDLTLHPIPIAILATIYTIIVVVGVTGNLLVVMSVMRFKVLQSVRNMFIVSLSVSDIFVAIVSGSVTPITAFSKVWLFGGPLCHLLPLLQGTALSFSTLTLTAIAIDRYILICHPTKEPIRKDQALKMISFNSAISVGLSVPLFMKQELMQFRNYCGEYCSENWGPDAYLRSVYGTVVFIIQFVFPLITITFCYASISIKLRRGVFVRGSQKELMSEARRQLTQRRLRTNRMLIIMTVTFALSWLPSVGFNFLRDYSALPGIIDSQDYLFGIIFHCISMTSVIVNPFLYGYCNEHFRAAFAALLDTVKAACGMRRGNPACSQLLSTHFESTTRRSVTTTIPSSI
Experimental: (§1) Using Chinese hamster ovarian (CHO) cell cultures stably expressing the promiscuous G protein, Gα16, and the calcium reporter, aequorin, it was observed that both isoforms of NPR-10 are activated by seven of the ten FLP-3 peptides, with half-maximal effective concentrations (EC50) in the nM range (FIG. 14A-FIG. 14H, Table V). […] This peptide contains an R-to-K mutation within the C-terminal motif, which may explain the lack of receptor activation.
(§2) The GPCR activation assay was performed as previously described Van Sinay, E. et al. Proc. Natl Acad. Sci. USA 114, E4065-e4074 (2017) and Peymen, K. et al. PLoS Genet. 15, e1007945 (2019). Briefly, npr-10 and frpr-16 cDNAs were cloned into the pcDNA3.1 TOPO expression vector (Thermo Fisher Scientific). A CHO-K1 cell line (PerkinElmer, ES-000-A24) stably expressing apo-aequorin targeted to the mitochondria (mtAEQ) and human Gα16 was transiently transfected with the receptor cDNA construct or the empty pcDNA3.1 vector using Lipofectamine LTX and Plus reagent (Thermo Fisher Scientific). Cells were shifted to 28° C. one day later and allowed to incubate for 24 h. On the day of the assay, cells were collected in BSA medium (DMEM/Ham's F12 with 15 mM HEPES, without phenol red, 0.1% BSA) and loaded with […] coelenterazine h (Thermo Fisher Scientific) for 4 h at room temperature. The incubated cells were then added to synthetic peptides dissolved in DMEM/BSA, and luminescence was measured for 30 s at […] using a Mithras LB940 (Berthold Technologies) or MicroBeta LumiJet luminometer (PerkinElmer). After 30 s of readout, 0.1% triton X-100 was added to lyse the cells, resulting in a maximal calcium response that was measured for 10 s. After initial screening, concentration-response curves were constructed for HPLC-purified FLP-3 peptides by subjecting the transfected cells to each peptide in a concentration range from 1 pM to 10 μM. Cells transfected with an empty vector were used as a negative control. Assays were performed in triplicate on at least two independent days. Concentration-response curves were fitted using Prism v. 7 (nonlinear regression analysis with a sigmoidal concentration-response equation).

FRPR-16 = molecular target: T2, FRPR-16 (Caenorhabditis elegans, UniProt Q21957); experiment: In vitro GPCR activation assay (CHO-K1 cells, aequorin, human Gα16), FRPR-16; assay type: cell-based, C. elegans; details: calcium/aequorin luminescence in transfected CHO-K1 cells
T2 sequence (Q21957 1-340): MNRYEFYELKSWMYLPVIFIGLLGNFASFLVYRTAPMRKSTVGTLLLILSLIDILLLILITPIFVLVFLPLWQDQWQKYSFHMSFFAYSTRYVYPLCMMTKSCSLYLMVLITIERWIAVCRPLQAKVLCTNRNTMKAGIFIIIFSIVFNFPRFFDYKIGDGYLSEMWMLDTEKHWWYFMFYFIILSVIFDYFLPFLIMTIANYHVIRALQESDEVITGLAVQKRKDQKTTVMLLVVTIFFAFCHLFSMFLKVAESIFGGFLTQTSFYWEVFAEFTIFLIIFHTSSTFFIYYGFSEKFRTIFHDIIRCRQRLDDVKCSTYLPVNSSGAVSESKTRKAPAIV
Experimental: as §2

NPR-10A = experiment: In vitro GPCR activation assay (CHO-K1 cells, aequorin, human Gα16), NPR-10A; assay type: cell-based, C. elegans; details: in words
Experimental: as §1
The GPCR activation assay was performed as previously described Van Sinay, E. et al. Proc. Natl Acad. Sci. USA 114, E4065-e4074 (2017) and Peymen, K. et al. PLoS Genet. 15, e1007945 (2019). Briefly, npr-10 and frpr-16 cDNAs were cloned into the pcDNA3.1 TOPO expression vector (Thermo Fisher Scientific). A CHO-K1 cell line (PerkinElmer, ES-000-A24) stably expressing apo-aequorin targeted to the mitochondria (mtAEQ) and human Gα16 was transiently transfected with the receptor cDNA construct or the empty pcDNA3.1 vector using Lipofectamine LTX and Plus reagent (Thermo Fisher Scientific). […] The incubated cells were then added to synthetic peptides dissolved in DMEM/BSA, and luminescence was measured for 30 s at […] using a Mithras LB940 (Berthold Technologies) or MicroBeta LumiJet luminometer (PerkinElmer). After 30 s of readout, 0.1% triton X-100 was added to lyse the cells, resulting in a maximal calcium response that was measured for 10 s. […]

C. elegans [1] = experiment: Single worm attraction assay (SWAA) of ascarosides; assay type: in vivo; details: for dwell time in cue vs vehicle: 1 μM, in words
Experimental: The spot retention assay was adapted to allow for better characterization of individual worm behavior and robust interrogation of attraction to small molecules. The attractiveness of 1 μM ascr #8 (FIG. 11A) were compared across multiple strains of C. elegans (the wild-type N2 strain, the high incidence of male him-5 and him-8 strains, and the chemosensory cilia defective osm-3), using the novel behavioral assay, the single worm attraction assay (SWAA) (FIG. 11A). In this assay, individual animals were placed directly into the spot of the ascaroside cue (A) while simultaneously removing any potential of male-male contact. […] Likewise, a vehicle control (V) is also included, to account of any changes in dwell time that are driven by the components of the vehicle. The outer forty wells of a 48-well suspension culture plate (Olympus Plastics, Cat #: 25-103) were seeded with 200 μL of standard NGM agar. To prepare the plates for the assay, they were acclimated to room temperature, at which point each well was seeded with 65 μL of OP50 E. coli. The assay plates were then transferred to a 37° C. incubator with the lid tilted for 4 h to allow the bacterial culture to dry on the agar. Once the bacterial culture dried, the lid was replaced the plate was stored at 20° C. until used in the assay. Fifty to sixty L4 worms were segregated by sex and stored at 20° C. for 5 h to overnight to be assayed as young adults. 0.8 μL of either vehicle control or ascaroside #8 was placed in the center of the well corresponding to that condition within the quadrant being tested, following a random block design (FIG. 11A). A single worm was placed in each of the 10 wells to be assayed, and the plate was transferred to a light source and camera and recorded for 15 m. […] Raw dwell time values were calculated by subtracting the time a worm exited the cue (center of the well in spatial controls), from the time it entered, as in the SRA. This was determined per visit, and the average dwell time was calculated for each animal in the quadrant. Averages of the four-quadrant means were determined per plate, and a minimum of five plates were assayed per strain/condition. The mean raw dwell time across five plates was calculated and used for statistical analyses and graphical display. […] An “attractive visit” was first determined for each plate as any visit greater than two standard deviations above the mean dwell time within the vehicle control for that plate. Any individual visit meeting this threshold was scored as a “1”, and any below was scored a “0”. The percent visits per-worm that were attractive was determined, and the average of each quadrant taken. […] The average percent of attractive visits across five plates was calculated and used for statistical analyses and graphical display.

C. elegans [2] = experiment: Drop avoidance assay of ascr #8; assay type: in vivo; details: in words
Experimental: Because the defect in male response to ascr #8 was significant, and the SWAA was designed to detect attractive behaviors, it was sought to determine if flp-3 loss-of-function (lof) animals were in fact avoiding ascr #8. Using a previously described drop avoidance assay, forward moving animals were exposed to a drop of either vehicle control or ascr #8 and scored the avoidance index. […] The hermaphroditic behavior was unaffected by the loss of flp-3. (FIG. 12F).
Assays were performed as described previously in Chute, C. D. & Srinivasan, J. Semin. Cell Dev. Biol. 33, 18-24 (2014); Chute, C. D. et al. Nat. Commun. 10, 3186 (2019); and Hilliard, M. A. et al., EMBO J. 23, 1101-1111 (2004). Fifty to sixty L4 worms were segregated by sex and stored at 20° C. for 5 h to overnight to be assayed as young adults. One to four hours prior to the assay, the lids of unseeded plates were tilted to allow any excess moisture to evaporate off the plates. At the time of the assay, 10 or more animals were transferred onto each of the dried, unseeded plates. A drop of either water or 1 μM ascr #8 was placed on the tail of forward moving animals, and their response was scored as either an avoidance response, or no response. The total number of avoidances was divided by the total number of drops to generate an avoidance index for that plate. This was repeated for at least 10 plates over at least three different days.

| activation of NPR-10 (NPR-10B) (NPR-10B) | EC50 (FRPR-16) | Compound | activation of NPR-10A (NPR-10A) | dwell time in cue vs vehicle (C. elegans [1]; hermaphrodites, all strains) | dwell time in cue vs vehicle (C. elegans [1]; males, wild-type and him strains) | attractive visits to the cue (C. elegans [1]; males, 1 μM ascr #8) | avoidance of the cue (C. elegans [2]; hermaphrodites) | avoidance of the cue (C. elegans [2]; wild-type males, 1 μM ascr #8) |
| --- | --- | --- | --- | --- | --- | --- | --- | --- |
| did not activate | 1600 nM | SADDSAPFGTMRF-NH2 [FLP-3-8, SADDSAPFGTMRFamide] | did not activate |  |  |  |  |  |
|  |  | C[C@H](CC/C=C/C(=O)Nc1ccc(C(=O)O)cc1)O[C@@H]1O[C@@H](C)[C@H](O)C[C@H]1O [ascr #8] |  | significantly less time in ascr #8 than the vehicle | significant increase in the amount of time spent within ascr #8 spot compared to the vehicle control | 30-45% | avoid | did not avoid the cue |
